Like-named read-outs stand apart in the source and are kept apart here. Where a SMILES comes first, the peptide text is derived from it. [ ]: non-standard residue; d: D form. NMeF = CN[C@@H](Cc1ccccc1)C(=O)O; dNMeA = CN[C@H](C)C(=O)O
What was measured:
[1] = Caco-2 permeability assay (apical to basolateral); format: in vitro ADME, human
Summary of the method: (§1)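 Apical-to-basolateral flux was determined by LC-MS of both compartments after 90 min at 37°C on an orbital shaker, with 50 μM peptide on the apical side and HBSS below. Monolayers were grown for 6 days in an accelerated Caco-2 Transwell format and verified by TEER before and after the run.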

Caco-2 cells = experiment: Caco-2 permeability assay (apical to basolateral); format: in vitro ADME, human; conditions: Caco-2
Summary of the method: as §1

[2] = PAMPA, apparent permeability (Papp) in PAMPA
in vitro = conditions: PAMPA, PAMPA_Papp_Avg
[3] = PAMPA

CC[C@H](C)[C@@H]1NC(=O)[C@H](Cc2ccccc2)N(C)C(=O)[C@H]2CCCN2C(=O)[C@H]([C@@H](C)CC)NC(=O)[C@@H](C)N(C)C(=O)[C@@H](C)NC(=O)[C@@H]2CCCN2C(=O)[C@H]2CCCN2C(=O)[C@H](CC(C)C)NC(=O)[C@@H](CC(C)C)NC(=O)[C@H](CC(C)C)NC(=O)[C@H]2CCCN2C1=O [Design D12.6, DPRO *PHE ILE DPRO LEU DLEU LEU DPRO PRO DALA *DALA ILE] (cyclo([dA][dNMeA]I[dP][NMeF]I[dP]L[dL]L[dP]P))
Papp A→B ([1]; Caco-2, Caco_Papp_Average): 2.84 ×10⁻⁶ cm/s | Papp at 90 min, 50 µM ([1]; human, Caco-2): 2.84 ×10⁻⁶ cm/s | Caco_R1 (Caco-2 cells): 2.06 | Caco_R3 (Caco-2 cells): 4.18 | Papp [2]: 1.47 ×10⁻⁶ cm/s | Papp (in vitro): 1.47 ×10⁻⁶ cm/s | PAMPA_R1 [3]: 2.43E-06 | PAMPA_R3 [3]: 1.22E-06

From article PMC9490236, “Accurate de novo design of membrane-traversing macrocycles” (Cell, 2022)
